Drawing on patent US11976057B2, “MrgX2 antagonists” (GlaxoSmithKline Intellectual Property Development Limited, priority 2020, dated 2024), this text covers IC50 for 28 compounds.

Structures are written as SMILES.

As a reminder, the IC50 is the concentration needed to halve the response being measured.

This experiment has as its target T1, human MRGPRX2 (Homo sapiens, UniProt Q96LB1).
T1 sequence (Q96LB1 1-330): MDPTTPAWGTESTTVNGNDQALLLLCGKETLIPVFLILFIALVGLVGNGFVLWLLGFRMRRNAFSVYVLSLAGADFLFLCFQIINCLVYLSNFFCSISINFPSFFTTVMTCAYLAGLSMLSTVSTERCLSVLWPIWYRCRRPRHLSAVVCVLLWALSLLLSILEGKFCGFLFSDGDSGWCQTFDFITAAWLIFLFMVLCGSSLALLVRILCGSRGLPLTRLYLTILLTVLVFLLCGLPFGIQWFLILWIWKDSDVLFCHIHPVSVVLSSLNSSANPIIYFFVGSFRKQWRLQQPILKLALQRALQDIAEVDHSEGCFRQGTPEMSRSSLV
Nature of the experiment: Ca2+ mobilization assay (FLIPR TETRA): inhibition of Cortistatin-14 mediated MRGPRX2 activation. Background: Calcium assays in cells follow changes in intracellular calcium, usually with a dye or a luminescent sensor.

Take `COc1cccc(Oc2ccc(NC(=O)C(C)N3CCC(F)(F)[C@@H](c4ccc(=O)[nH]c4)C3)nc2)n1` (stereo partly drawn) [Example 95, 2-((S)-4,4-difluoro-3-(6-oxo-1,6-dihydropyridin-3-yl)piperidin-1-yl)-N-(5-((6-methoxypyridin-2-yl)oxy)pyridin-2-yl)propanamide]: the half-maximal inhibitory concentration (IC50) is 10 to 100 nM.

Take `C[C@@H](C(=O)Nc1ccc(Oc2c(F)cc(F)cc2F)cn1)N1CCC(F)(F)[C@@H](c2ccc(=O)[nH]c2)C1` [Example 96, (S)-2-((S)-4,4-difluoro-3-(6-oxo-1,6-dihydropyridin-3-yl)piperidin-1-yl)-N-(5-(2,4,6-trifluorophenoxy)pyridin-2-yl)propanamide]: the IC50 is at most 10 nM.

With `C[C@@H](C(=O)Nc1ccc(Oc2cc(F)c(F)cc2F)cn1)N1CCC(F)(F)[C@@H](c2ccc(=O)[nH]c2)C1` [Example 97, (S)-2-((S)-4,4-difluoro-3-(6-oxo-1,6-dihydropyridin-3-yl)piperidin-1-yl)-N-(5-(2,4,5-trifluorophenoxy)pyridin-2-yl)propanamide], the IC50 is at most 10 nM. Then `C[C@@H](C(=O)Nc1ccc(Oc2ccc(F)cc2CN(C)C)cn1)N1CCC(F)(F)[C@@H](c2ccc(=O)[nH]c2)C1` [Example 98, (S)-2-((S)-4,4-difluoro-3-(6-oxo-1,6-dihydropyridin-3-yl)piperidin-1-yl)-N-(5-(2-((dimethylamino)methyl)-4-fluorophenoxy)pyridin-2-yl)propanamide], with 100 to 3160 nM; and `Cc1nc(-c2ccc(Oc3ccc(NC(=O)[C@H](C)N4CCC(F)(F)[C@@H](c5ccc(=O)[nH]c5)C4)nc3)c(F)c2)cs1` [Example 99, (S)-2-((S)-4,4-difluoro-3-(6-oxo-1,6-dihydropyridin-3-yl)piperidin-1-yl)-N-(5-(2-fluoro-4-(2-methylthiazol-4-yl)phenoxy)pyridin-2-yl)propanamide], with 10 to 100 nM; and `C[C@@H](C(=O)Nc1ccc(OC2CCC2)nn1)N1CCC(F)(F)[C@@H](c2ccc(=O)[nH]c2)C1` [Example 100, (S)-N-(6-cyclobutoxy-pyridazin-3-yl)-2-((S)-4,4-difluoro-3-(6-oxo-1,6-dihydropyridin-3-yl)piperidin-1-yl)propanamide], with 100 to 3160 nM.

In turn, `C[C@@H](C(=O)Nc1ccc(OC2CCCC2)nn1)N1CCC(F)(F)[C@@H](c2ccc(=O)[nH]c2)C1` [Example 101, (S)-N-(6-(cyclopentyloxy)pyridazin-3-yl)-2-((S)-4,4-difluoro-3-(6-oxo-1,6-dihydropyridin-3-yl)piperidin-1-yl)propanamide] came in with an IC50 of 10 to 100 nM. In the case of `C[C@@H](C(=O)Nc1ccc(C(F)(F)c2ccc(F)cc2)cn1)N1CCC(F)(F)[C@@H](c2ccc(=O)[nH]c2)C1` [Example 102, (S)-N-(5-(difluoro(4-fluorophenyl)methyl)pyridin-2-yl)-2-((S)-4,4-difluoro-3-(6-oxo-1,6-dihydropyridin-3-yl)piperidin-1-yl)propanamide] it was 10 to 100 nM; in that of `C[C@@H](C(=O)Nc1ccc(OCC2CC2)cn1)N1CCC(F)(F)[C@@H](c2c[nH]c(=O)c(N)n2)C1` [Example 105, (S)-2-((R)-3-(6-amino-5-oxo-4,5-dihydropyrazin-2-y1)-4,4-difluoropiperidin-l-y1)-N-(5-(cyclopropylmethoxy)pyridin-2-yl)propanamide], 10 to 100 nM; in that of `C[C@@H](C(=O)Nc1ccc(F)cn1)N1CCC(F)(F)[C@@H](c2c[nH]c(=O)c(N)n2)C1` [Example 106, (S)-2-((R)-3-(6-amino-5-oxo-4,5-dihydropyrazin-2-yl)-4,4-difluoropiperidin-l-y1)-N-(5-fluoropyridin-2-yl) propanamide], 10 to 100 nM. In the case of `C[C@@H](C(=O)Nc1ccc(Cl)cn1)N1CCC(F)(F)[C@@H](c2c[nH]c(=O)c(N)n2)C1` [Example 107, (S)-2-((R)-3-(6-amino-5-oxo-4,5-dihydropyrazin-2-y1)-4,4-difluoropiperidin-l-y1)-N-(5-chloropyridin-2-yl)propanamide] it was 100 to 3160 nM.

In turn, `C[C@@H](C(=O)Nc1ccc(Oc2ccc(F)cc2)cn1)N1CCC(F)(F)[C@@H](c2c[nH]c(=O)c(N)n2)C1` [Example 108, (S)-2-((R)-3-(6-amino-5-oxo-4,5-dihydropyrazin-2-y1)-4,4-difluoropiperidin-1-y1)-N-(5-(4-fluorophenoxy)pyridin-2-yl)propanamide] gave an IC50 of at most 10 nM.

In the case of `CC(C(=O)Nc1ccc(Oc2ccccc2)cn1)N1CCC(F)(F)C(c2cc[n+]([O-])cc2)C1` (stereo not shown) [Example 110], the IC50 was at most 10 nM. In the case of `C[C@@H](C(=O)Nc1ccc(OCC2CC2)cn1)N1CCC(F)(F)[C@@H](c2cc[n+]([O-])cc2)C1` [Example 111, 4-((S)-1-((S)-1-((5-(cyclopropylmethoxy)pyridin-2-yl)amino)-1-oxopropan-2-yl)-4,4-difluoropiperidin-3-yl)pyridine 1-oxide] it was 10 to 100 nM. Then `C[C@@H](C(=O)Nc1ccc(Cl)cn1)N1CCC(F)(F)[C@@H](c2cc[n+]([O-])cc2)C1` [Example 112, 4-((S)-1-((S)-1-((5-chloropyridin-2-yl)amino)-1-oxopropan-2-yl)-4,4-difluoropiperidin-3-yl)pyridine 1-oxide], with 100 to 3160 nM. In the case of `C[C@@H](C(=O)Nc1ccc(F)cn1)N1CCC(F)(F)[C@@H](c2cc[n+]([O-])cc2)C1` [Example 113, 4-((S)-4,4-difluoro-1-((S)-1-((5-fluoropyridin-2-yl)amino)-1-oxopropan-2-yl)piperidin-3-yl)pyridine 1-oxide] it was 100 to 3160 nM; in that of `C[C@@H](C(=O)Nc1ccc(Oc2ccc(F)cc2)cn1)N1CCC(F)(F)[C@@H](c2cc[n+]([O-])cc2)C1` [Example 114, 4-((S)-4,4-difluoro-1-((S)-1-((5-(4-fluorophenoxy)pyridin-2-yl)amino)-1-oxopropan-2-yl)piperidin-3-yl)pyridine 1-oxide], at most 10 nM; in that of `C[C@@H](C(=O)Nc1ccc(Oc2ccc(F)cn2)cn1)N1CCC(F)(F)[C@@H](c2cc[n+]([O-])cc2)C1` [Example 115], 10 to 100 nM. With `C[C@@H](C(=O)Nc1ccc(Oc2ncc(F)cc2F)cn1)N1CCC(F)(F)[C@@H](c2cc[n+]([O-])cc2)C1` [Example 116], the IC50 fell in the range of 10 to 100 nM. Then `C[C@@H](C(=O)Nc1ccc(Oc2ccc(F)cc2F)cn1)N1CCC(F)(F)[C@@H](c2cc[n+]([O-])cc2)C1` [Example 117, 4-((S)-1-((S)-1-((5-(2,4-difluorophenoxy)pyridin-2-yl)amino)-1-oxopropan-2-yl)-4,4-difluoropiperidin-3-yl)pyridine 1-oxide], with at most 10 nM; and `C[C@@H](C(=O)Nc1cnc(Oc2c(F)cc(F)cc2F)cn1)N1CCC(F)(F)[C@@H](c2cc[n+]([O-])cc2)C1` [Example 119, 4-((S)-4,4-difluoro-1-((S)-1-oxo-1-((5-(2,4,6-trifluorophenoxy)pyrazin-2-yl)amino)propan-2-yl)piperidin-3-yl)pyridine 1-oxide], with at most 10 nM. In the case of `C[C@@H](C(=O)Nc1cnc(Oc2cc(F)c(F)cc2F)cn1)N1CCC(F)(F)[C@@H](c2cc[n+]([O-])cc2)C1` [Example 120, 4-((S)-4,4-difluoro-1-((S)-1-oxo-1-((5-(2,4,5-trifluorophenoxy)pyrazin-2-yl)amino)propan-2-yl)piperidin-3-yl)pyridine 1-oxide] it was at most 10 nM; in that of `C[C@@H](C(=O)Nc1cnc(Oc2c(F)cccc2F)cn1)N1CCC(F)(F)[C@@H](c2cc[n+]([O-])cc2)C1` [Example 121, 4-((S)-1-((S)-1-((5-(2,6-difluorophenoxy)pyrazin-2-yl)amino)-1-oxopropan-2-yl)-4,4-difluoropiperidin-3-yl)pyridine 1-oxide], at most 10 nM. `C[C@@H](C(=O)Nc1cnc(Oc2ccc(F)c(F)c2F)cn1)N1CCC(F)(F)[C@@H](c2cc[n+]([O-])cc2)C1` [Example 122, 4-((S)-4,4-difluoro-1-((S)-1-oxo-1-((5-(2,3,4-trifluorophenoxy)pyrazin-2-yl)amino)propan-2-yl)piperidin-3-yl)pyridine 1-oxide] registered an IC50 of at most 10 nM. `C[C@@H](C(=O)Nc1ccc(Oc2c(F)cc(F)cc2F)cn1)N1CCC(F)(F)[C@@H](c2cc[n+]([O-])cc2)C1` [Example 123, 4-((S)-4,4-difluoro-1-((S)-1-oxo-1-((5-(2,4,6-trifluorophenoxy)pyridin-2-yl)amino)propan-2-yl)piperidin-3-yl)pyridine 1-oxide]: the IC50 was at most 10 nM. `C[C@@H](C(=O)Nc1ccc(Oc2cc(F)c(F)cc2F)cn1)N1CCC(F)(F)[C@@H](c2cc[n+]([O-])cc2)C1` [Example 124, 4-((S)-4,4-difluoro-1-((S)-1-oxo-1-((5-(2,4,5-trifluorophenoxy)pyridin-2-yl)amino)propan-2-yl)piperidin-3-yl)pyridine 1-oxide] showed an IC50 of at most 10 nM.

As to `C[C@@H](C(=O)Nc1ccc(Oc2ncccc2F)cn1)N1CCC(F)(F)[C@@H](c2cc[n+]([O-])cc2)C1` [Example 125, 4-((S)-4,4-difluoro-1-((S)-1-((5-((3-fluoropyridin-2-yl)oxy)pyridin-2-yl)amino)-1-oxopropan-2-yl)piperidin-3-yl)pyridine 1-oxide], the IC50 fell in the range of 10 to 100 nM. `C[C@@H](C(=O)Nc1ccc(Oc2ccccn2)cn1)N1CCC(F)(F)[C@@H](c2cc[n+]([O-])cc2)C1` [Example 126, 4-((S)-4,4-difluoro-1-((S)-1-oxo-1-((5-(pyridin-2-yloxy)pyridin-2-yl)amino)propan-2-yl)piperidin-3-yl)pyridine 1-oxide] came in with an IC50 of 10 to 100 nM.
